Source: patent US11827628B2, “Compositions and methods for inhibition of the JAK pathway” (Rigel Pharmaceuticals, Inc., priority 2005, dated 2023)
pIC50: −log10 of the molar value. Read-outs that look alike come from different tables or passages of the source.

Test system: Primary human T-cells
Assay: Primary Human T-Cell Proliferation Assay Stimulated with IL-2 (CellTiter-Glo)
Assay type: cell-based
Conditions: read-out: IC50, Example 42
Procedure, shortened: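 IC50 derived from CellTiter-Glo ATP signal after 72 hours of IL-2-driven proliferation at 37° C. Cells: primary human T-cells from blood, stimulated beforehand 3-4 days on anti-CD3/anti-CD28 with IL-2, then rested from IL-2 before compound exposure in duplicate; IL-2-free wells served as unstimulated control.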

Structure (SMILES) | pIC50 (primary human T-cells stimulated with IL-2, proliferation) | pIC50 (primary human T-cell proliferation stimulated with IL-2)
Cc1ccc(Nc2ncc(F)c(Nc3ccc4c(c3)CCN4S(C)(=O)=O)n2)cc1S(N)(=O)=O [VII-61, N2-(3-Aminosulfonyl-4-methylphenyl)-5-fluoro-N4-[4-(1-methylsulfonyl)indolin-5-yl]-2,4-pyrimidinediamine] | 6.85 | –
Cc1cc(Nc2nc(Nc3cccc(S(N)(=O)=O)c3)ncc2F)cc(C)c1OC(C)C#N (racemic) [Compound I-71, Racemic N2-(3-Aminosulfonyl)phenyl-N4-[4-(1-cyano)ethoxy-3,5-dimethyl]phenyl-5-fluoro-2,4-pyrimidinediamine] | – | 6.87
